Source: article PMC12604490, “Dual immunomodulatory and antileishmanial potential of TLR7/8 agonists against Leishmania donovani” (Infection and Immunity, 2025)
In brackets after ≈: the same amount, converted by molar mass.

Experiments:
TLR8 = tested on: TLR8; design: method as in PMID 38741265, PMID 39411538; details: Table 1; previously reported; cited from earlier work
[1] = tested on: L. donovani promastigotes; assay: In vitro antipromastigote activity (trypan blue count, 48 h); format: cell-based, Leishmania donovani MHOM/IN/80/DD8; details: Leishmania donovani, mean ± SD
Procedure: M199 was added with 0.2% sodium bicarbonate and 10% heat-inactivated fetal bovine serum (FBS; Biowest, France) + antibiotics (gentamycin and streptomycin) by serial subcultures after every 48-72 hours by transferring 0.5-1.0 mL of culture supernatant in fresh medium and kept in a biological oxygen demand (BOD) incubator ([20]). […] The percentage growth inhibition was calculated using the following formulas: Percentage viability=No. of live cells in treated well/No. of live cells in blank well×100 Percentage growth inhibition=100 - percentage viability. The IC50 values were calculated using SPSS software, version 25 ([22]).

TLR7 = tested on: TLR7; design: method as in PMID 38741265, PMID 39411538; details: Table 1, previously reported, cited from earlier work; for EC50: read-out: TLL7 EC50
[2] = Cytotoxicity on RAW 264.7 macrophages (MTT, 48 h); format: cell-based; details: mouse, RAW 264.7 macrophages
Procedure: (§1) To evaluate the cytotoxicity and antiamastigote assay, RAW 264.7 macrophages were cultured in Dulbecco’s modified Eagle medium (HiMedia, India), 10% heat-inactivated fetal bovine serum (FBS, Biowest) and cultured at 37°C (5% CO2). The macrophage cell growth was evaluated daily, and the cells were subcultured into a new flask containing fresh cell culture medium once they reached about 80%–90% confluency.
(§2) The cytotoxicity studies were performed using an immune cell line (RAW 264.7 macrophage) and non-immune epithelial cell line (HeLa) by 3-(4,5-dimethylthiazol-2-yl)-2,5-diphenyltetrazolium bromide (MTT) assay. A total of 7,000–10,000 cells/well were supplemented with different concentrations (2–64 μg/mL) of TLR7/8 agonists and incubated for 48 hours. MTT (1 mg/mL) (Hi-Media) was added to each well and kept for 4 hours. The formazan crystals formed were dissolved in 100 µL of dimethyl ulfoxide (DMSO), and absorbance at 550 nm was recorded using a microreader. AmB, MF, and Resiquimod were used as reference drugs. The percentage of cytotoxicity was calculated as [(absorbance of treated well − absorbance of blank) / (absorbance of untreated well − absorbance of blank)] × 100. The CC50 value was calculated with SPSS software. The SI of TLR7/8 agonists was obtained by calculating the ratio of CC50 (RAW 264.7 macrophage and HeLa cells) and IC50 (antipromastigote and antiamastigotes) ([21], [23]).

[3] = tested on: intracellular L. donovani amastigotes; assay: Antiamastigote activity in infected RAW 264.7 macrophages (Giemsa count, 48 h); format: cell-based; details: Leishmania donovani, RAW264.7, intracellular amastigotes in RAW 264.7 macrophages, mean ± SD
Procedure: The macrophage cell growth was evaluated daily, and the cells were subcultured into a new flask containing fresh cell culture medium once they reached about 80%–90% confluency. […] Macrophages (2 × 10^4/mL) were plated on round coverslips placed in 24-well plates for 24 hours in a CO2 incubator (5% CO2) at 37°C. The coverslips were washed thrice with serum-free medium to remove the non-adherent cells. […] Infected macrophages were incubated with different concentrations of TLR7/8 agonists for 48 hours. After 48 hours, the coverslips were washed with phosphate-buffered saline (PBS), dried, fixed with chilled methanol, Giemsa-stained, and examined under a light microscope. A minimum of 200 macrophages were counted per coverslip to determine the number of amastigotes.

[4] = Cytotoxicity on HeLa cells (MTT, 48 h); format: cell-based, human; details: human, HeLa cells
Procedure: HeLa cells (human cervical epithelial cell line) were grown in RPMI-1640 (HiMedia) with 10% FBS and cultured at 37°C (5% CO2). The cells were evaluated daily using an inverted microscope for any contamination and subcultured after reaching confluency ([21]).
as §2

RAW 264.7 macrophages [5] = assay: NO production in RAW 264.7 macrophages (Griess reagent); format: cell-based
Procedure: After 24 hours, non-adherent cells were removed, and adherent cells were incubated with TLR7/8 agonist for 48 hours in the presence or absence of LPS (1 µg/mL) (Biosciences) to evaluate both unstimulated and LPS-stimulated macrophage responses. After 48 hours, the culture supernatant (100 µL) was collected and mixed with an equal volume of Griess reagent (1% sulfanilamide and 0.1% naphthlethylenediamine dihydrochloride in 2.5% phosphoric acid) (Sigma), and absorbance was measured in a microreader at 540 nm. Nitrite concentration was evaluated from a standard curve generated with sodium nitrite ([25]).

[6] = tested on: L. donovani promastigotes; assay: ROS in Leishmania promastigotes (H2DCFDA, flow cytometry); format: cell-based, Leishmania donovani; details: promastigotes incubated with the IC50 value for 48 hours; untreated 295 ± 1.52
Procedure: Induction of ROS by promastigotes after exposure to TLR7/8 agonists was done using a cell-permeable fluorescent dye H2DCFDA (Thermo Fisher). […] After this given time period, parasites were harvested and washed thrice with PBS and resuspended in 10 µM H2DCFDA for 20 minutes in the dark at 37°C. The fluorescence was measured by using FACS Calibur flow cytometry ([24]).

[7] = tested on: L. donovani promastigotes; assay: Cell cycle progression in promastigotes (propidium iodide, flow cytometry); format: cell-based, Leishmania donovani; details: promastigotes incubated with the IC50 for 48 hours; untreated 12.0% ± 1.05%
Procedure: For analysis of the promastigote cell cycle, 2 × 10^6 promastigotes/mL were briefly incubated with the IC50 of TLR7/8 agonists in a 24-well culture plate. After 48 hours, promastigotes were washed with PBS and fixed with 70% (vol/vol) chilled ethanol. After 1 hour of incubation, parasites were washed with PBS, and the pellet was incubated with 500 µL of DNase-free RNase (200 µg/mL) (Thermo Fisher) for 1 hour. Afterward, parasites were stained with PI dye (50 µg/mL), and the percentage of parasites in the sub-G0/G1 phase was analyzed using FACS Calibur flow cytometry ([20]).

RAW 264.7 macrophages [8] = assay: Cytotoxicity on RAW 264.7 macrophages (MTT, 48 h); format: cell-based; details: MTT, 48 hours, mean ± SD
Procedure: as §1, §2

Leishmania major = tested on: Leishmania major; design: method as in PMID 33531168; details: 80 µM concentration; cited from earlier work
Leishmania infantum = details: read-out: IC50 against Leishmania infantum; cited from earlier work
[9] = tested on: Leishmania in peritoneal macrophages; design: method as in PMID 30991111; details: cited from earlier work
L. infantum = tested on: L. infantum; design: method as in PMID 33851916; details: read-out: IC50 (antiamastigote) against L. infantum; cited from earlier work
[10] = MTT, 48 hours, mean ± SD, read-out: RAW macrophage CC50
[11] = MTT, 48 hours, mean ± SD, read-out: HeLa cell CC50
[12] = Fig 4 heat map, mean CC50, unit inferred, read-out: CC50, heat map, Hela Cells

**Q.** For `CCCCc1nc2c(N)nc3ccccc3c2n1Cc1ccc(CNC(=O)OC(C)(C)C)cc1` [compound 7], which “TLR8 EC50” value (TLR8) is on record?
**A.** The value was “Active”.

**Q.** What about the IC50 [1] of the same compound?
**A.** Its IC50 is 3.82 ± 0.39 µg/mL (≈ 8.31 µM).

**Q.** What about the “TLL7 EC50” value (TLR7) of the same compound?
**A.** The value was “Active”.

**Q.** And the CC50 at 48 h [2, 10]?
**A.** The CC50 at 48 h was 6.28 ± 0.2 µg/mL (≈ 13.7 µM).

**Q.** And the IC50 [3]?
**A.** Its IC50 is 5.16 ± 0.79 µg/mL (≈ 11.2 µM).

**Q.** And the CC50 at 48 h [4, 11]?
**A.** The CC50 at 48 h was 4.28 ± 0.2 µg/mL (≈ 9.31 µM).

**Q.** Which results are given for `CCCCc1nc2c(N)nc3ccccc3c2n1Cc1cccc(CNC(=O)OC(C)(C)C)c1` [compound 8]?
**A.** TLR8 EC50 (TLR8): Active; IC50 [1]: 2.21 ± 0.6 µg/mL (≈ 4.81 µM); TLL7 EC50 (TLR7): Active; CC50 at 48 h [2, 10]: 9.5 ± 1 µg/mL (≈ 20.7 µM); IC50 [3]: 3.1 ± 0.9 µg/mL (≈ 6.75 µM); CC50 at 48 h [4, 12]: 8.8 µg/mL (≈ 19.1 µM); CC50 at 48 h [4, 11]: 8.86 ± 0.5 µg/mL (≈ 19.3 µM)

**Q.** For `CCCCc1nc2c(N)nc3ccccc3c2n1Cc1cccc(CN)c1` [compound 9], which EC50 (TLR8) is on record?
**A.** Its EC50 is […].

**Q.** What about the IC50 [1] of the same compound?
**A.** The IC50 was 4.53 ± 0.58 µg/mL (≈ 12.6 µM).

**Q.** What about the CC50 at 48 h [2, 10] of the same compound?
**A.** Its CC50 at 48 h is 6.67 ± 0.3 µg/mL (≈ 18.6 µM).

**Q.** And the IC50 [3]?
**A.** The IC50 was 6.46 ± 0.47 µg/mL (≈ 18 µM).

**Q.** And the CC50 at 48 h [4, 11]?
**A.** The CC50 at 48 h was 4.67 ± 0.3 µg/mL (≈ 13 µM).

**Q.** With `CCCCc1nc2c(N)nc3ccccc3c2n1Cc1ccc(CN)cc1` [compound 10] as the compound, how does the EC50 (TLR8) read?
**A.** The EC50 was […].

**Q.** What about the NO production (RAW 264.7 macrophages [5]; RAW 264.7 macrophages, 48 hour treatment at the IC50 value, nitrite by Griess) of the same compound?
**A.** Its NO production is 42 ± 1 µM.

**Q.** What about the “NO production in unstimulated macrophages” value (RAW 264.7 macrophages [5]; RAW macrophages without LPS stimulation, in words) of the same compound?
**A.** The value was “moderate NO production”.

**Q.** And the IC50 [1]?
**A.** Its IC50 is 2.33 ± 0.4 µg/mL (≈ 6.48 µM).

**Q.** What about the CC50 at 48 h ([2]; Fig 4 heat map, mean CC50, unit inferred, read-out: CC50, heat map, Raw Macrophages) of the same compound?
**A.** The CC50 at 48 h was 25.4 µg/mL (≈ 70.6 µM).

**Q.** What about the CC50 at 48 h [2, 10] of the same compound?
**A.** Its CC50 at 48 h is 30.4 ± 1.6 µg/mL (≈ 84.5 µM).

**Q.** And the IC50 [3]?
**A.** Its IC50 is 3 ± 0.36 µg/mL (≈ 8.35 µM).

**Q.** And the “ROS, mean fluorescence intensity (MFI)” value [6]?
**A.** Its value is 935 ± 1.

**Q.** What about the “percentage of parasites in sub-G0/G1 phase” value [7] of the same compound?
**A.** The value was 75.7% ± 1.25%.

**Q.** What about the CC50 at 48 h [4, 12] of the same compound?
**A.** Its CC50 at 48 h is 21.4 µg/mL (≈ 59.4 µM).

**Q.** What about the CC50 at 48 h [4, 11] of the same compound?
**A.** The CC50 at 48 h was 29.4 ± 1.6 µg/mL (≈ 81.7 µM).

**Q.** Which EC50 (TLR8) does the source give for `CCCCn1cc2c(n1)c(N)nc1ccccc12` [compound 11] here?
**A.** Its EC50 is 56 nM.

**Q.** What about the IC50 [1] of the same compound?
**A.** The IC50 was 4.63 ± 0.45 µg/mL (≈ 19.3 µM).

**Q.** And the EC50 (TLR7)?
**A.** The EC50 was 190 nM.

**Q.** And the CC50 at 48 h [2, 10]?
**A.** Its CC50 at 48 h is 6.69 ± 0.22 µg/mL (≈ 27.8 µM).

**Q.** And the “RAW macrophage CC50” value (RAW 264.7 macrophages [8])?
**A.** The value was 6.67 ± 0.2 µg/mL.

**Q.** And the IC50 [3]?
**A.** The IC50 was 6.6 ± 0.4 µg/mL (≈ 27.5 µM).

**Q.** And the CC50 at 48 h [4, 12]?
**A.** Its CC50 at 48 h is 4.88 µg/mL (≈ 20.3 µM).

**Q.** And the CC50 at 48 h [4, 11]?
**A.** Its CC50 at 48 h is 4.67 ± 0.2 µg/mL (≈ 19.4 µM).

**Q.** With `COc1cc(/C=C/C(=O)CC(=O)/C=C/c2ccc(O)c(OC)c2)ccc1O` [curcumin] as the compound, how does the cell death (Leishmania major) read?
**A.** The cell death was 82.5%.

**Q.** With `CC(C)Cn1cnc2c(N)nc3ccccc3c21` [imiquimod] as the compound, how does the IC50 (Leishmania infantum) read?
**A.** Its IC50 is 235 ± 10 nM.

**Q.** Which “IC50 against Leishmania in peritoneal macrophages” value [9] does the source give for `Oc1ccc(/C=C/c2cc(O)cc(O)c2)cc1` [resveratrol] here?
**A.** The value was 0.09 µg/mL (≈ 0.394 µM).

**Q.** Which IC50 (L. infantum) does the source give for `CC(=O)OC1C(O)CC(OC2C(O)CC(OC3C(O)CC(OC4CCC5(C)C(CCC6C5CCC5(C)C(C7=CC(=O)OC7)CCC65O)C4)OC3C)OC2C)OC1C` (stereo not drawn) [β-acetyl-digitoxin] here?
**A.** Its IC50 is 20.9 ± 2.6 µM.
